Measured values reported in article PMC10536189 (Microorganisms, 2023).
Like-named read-outs stand apart in the source and are kept apart here.

Test system: M. tuberculosis
Assay type: cell-based, Mycobacterium tuberculosis (laboratory strain H37Rv)
Conditions: for Average % Faster than Control: negative = slower
[1] = crude peptide 10 µg/mL, average of experiments 1 and 2
[2] = crude peptide 10 µg/mL, MGIT, independent experiment 1, Control (TB only) 11.10, inoculum emulsified through G25 needle
[3] = crude peptide 10 µg/mL, MGIT, independent experiment 2, Control (TB only) 9.10, inoculum emulsified through G25 needle

Substance	Time to Positivity (Day.Hours) Experiment 1 [Day.Hours]	Time to Positivity (Day.Hours) Experiment 2 [Day.Hours]	Average % Faster than Control [1] [%]	other results
FFPFLLGALGSLLPKIF [Temporin-SN1/Frog]	10.22	8.23	4.6	–
FFPYAALKWLRKLLKK [P-04/Tunicate]	11.02	8.08	7.2	–
FGKILGVGKKVLCGLS [Odorranain-H1/Frog *]	10.19	8.03	9.6	–
FIFIRWLLKLGHHGRA [Salusin-beta/Scorpion *]	10.18	8.03	9.8	–
FIITGLVRGLTKLF [Temporin-LTb/Frog]	11.07	8.06	6.7	–
FITLLLRKFICSITKKC [Brevinin-1Ta/Frog]	11.07	8.05	7.0	–
FLGALAKIISGIF [Temporin-1TSa/Frog]	11.00	8.02	8.9	–
FLGVVFKLASKVFPAV [D28/Designed *]	11.02	8.09	7.0	–
FLPLFASLIGKLL [Temporin-1Cb/Frog]	11.08	8.06	6.6	–
FLPLIAGLIGKLF [Peptide B9/Frog]	10.19	8.01	10.0	–
FLPLIGRVLSGIL [Temporin A/Frog, naturally occurring peptide, APD3, frog]	–	–	3.7	Time to Positivity (Day.Hours) Experiment 1 [2]: 11.02 Day.Hours; Time to Positivity (Day.Hours) Experiment 2 [3]: 9.00 Day.Hours
FLPLLASLFSRLF [Temporin-1Oc/Frog, naturally occurring peptide, APD3, frog]	–	–	3.8	Time to Positivity (Day.Hours) Experiment 1 [2]: 11.10 Day.Hours; Time to Positivity (Day.Hours) Experiment 2 [3]: 8.17 Day.Hours
FLPLVTMLLGKLF [Temporin-1Vc/Frog]	11.12	8.21	2.5	–
FLSIIAKVLGSLF [Temporin 1Vb/Frog]	11.10	8.08	5.8	–
FLSLIPSLVGGSISAFK [TsAP-1/Scorpion]	11.07	8.05	7.0	–
FLSTIWNGIKSLL [Pantinin-3/Scorpion]	11.08	8.23	2.8	–
FVQWFSKFLGRIL [Temporin L/Frog]	11.06	8.05	7.1	–
GAILPLALGALKNLIK [Hylin a1/Frog]	11.14	8.02	6.3	–
GFGMALKLLKKVL [Macropin 1/Wasp]	10.12	8.07	10.0	–
GFKRIVQRIKDFLRNLV [GF-17/Human *]	10.02	8.07	11.8	–
GFWGKLFKLGLHGIGL [NRC-15/Flounder]	11.02	8.14	5.9	–
GLGSLVGNALRIGAKLL [CPF-AM4/Frog]	10.17	8.06	9.3	–
GRLCYCRGWICFCVGR [Protegrin 4/Pig *]	11.11	8.01	7.1	–

Substance	Time to Positivity (Day.Hours) Experiment 1 [Day.Hours]	Time to Positivity (Day.Hours) Experiment 2 [Day.Hours]	Average % Faster than Control [1] [%]	other results
HFLGTLVNLAKKIL [Temporin-1DRa/Frog, naturally occurring peptide, APD3, frog]	–	–	8.5	Time to Positivity (Day.Hours) Experiment 1 [2]: 10.18 Day.Hours; Time to Positivity (Day.Hours) Experiment 2 [3]: 8.09 Day.Hours
ILGAILPLVSGLLSNKL [Alyteserin-2b/Toad]	11.18	8.02	5.6	–
ILPFLAGLFSKIL [Pelophylaxin-4/Frog]	11.05	8.18	4.5	–
ILPWKWPWWPWRR [Indolicidin/Cow]	11.03	8.18	4.8	–
INLKAIAALVKKLL [Mastoparan-VT6/Wasp]	10.21	8.04	9.0	–
IRLHRLYTWKATIYTR [PP13/Wasp *]	10.17	8.02	10.2	–
IsCT2/Scorpion: naturally occurring peptide, APD3, scorpion (IFGAIWNGIKSLF)	10.23	8.21	4.9	–
KKLLGKLLKKLGKLLL [GLK-19/Designed *]	10.17	8.04	9.7	–
KRRWRIWLV [P9/Designed]	11.10	8.14	4.4	–
LFKLLGKIIHHVGNFV [Clavanin E/Sea squirt, naturally occurring peptide, APD3, sea squirt]	–	–	5.8	Time to Positivity (Day.Hours) Experiment 1 [2]: 11.05 Day.Hours; Time to Positivity (Day.Hours) Experiment 2 [3]: 8.12 Day.Hours
LLAGLPKLLCLFFKKC [Brevinin-1DYc/Frog]	11.10	8.16	4.0	–
LLGDFFRKSKEKIGKEFKRIVQRIKDFLRNLVPRTES [Peptide 78, reference compound]	–	–	–	Effect on TTP of MTB in words (peptide 10 µg/mL, MGIT): lower TTP; Time to Positivity (Days.Hours) Experiment 2a (peptide 10 µg/mL, MGIT, diluted inoculum, technical repeat 2a, TB control (no peptide) 15.01): 14.15 Days.Hours; Time to Positivity (Days.Hours) Experiment 2b (peptide 10 µg/mL, MGIT, diluted inoculum, technical repeat 2b, TB control (no peptide) 15.20): 15.00 Days.Hours; Time to Positivity (Days.Hours) Experiment 1a (peptide 10 µg/mL, MGIT, less diluted inoculum, technical repeat 1a, TB control (no peptide) 7.02): 6.08 Days.Hours; Time to Positivity (Days.Hours) Experiment 1b (peptide 10 µg/mL, MGIT, less diluted inoculum, technical repeat 1b, TB control (no peptide) 7.01): 6.09 Days.Hours; Average % Faster than Control (peptide 10 µg/mL, overall average of the averages of experiments 1a/1b and 2a/2b): 5.8%
LSFLPKVIGVIGHLIH [Fallaxidin/Frog *]	11.18	8.13	3.2	–
LVPLFLSKLICFITKKC [Brevinin 1Tb/Frog]	11.10	8.15	4.2	–
OdVP2/Wasp: naturally occurring peptide, APD3, wasp (ILGIITSLLKSLGKK)	10.22	8.11	7.3	–
Pd_mastoparan PDD-B/Wasp: naturally occurring peptide, APD3, wasp (INWLKLGKKILGAL)	11.06	8.09	6.3	–
RGGRLCYCRRRFCVCV [Protegrin 1/Pig *]	10.23	6.22	15.3	–
RWCFRVCYRGICYRKCR [Tachyplasin II/Crab]	10.18	8.06	9.1	–
RWCVYAYVRVRGVLVR [Arenicin 1/Annelid worm *]	10.15	8.02	10.5	–
SAPRGCWTKSYPPKPCK [Ranacyclin E/Frog]	10.07	8.01	12.2	–
SLLSLIRKLIT [Decoralin/Wasp]	11.12	8.04	6.3	–
VFHLLGKIIHHVGNFV [Clavanin C/Sea squirt, naturally occurring peptide, APD3, sea squirt]	–	–	7.2	Time to Positivity (Day.Hours) Experiment 1 [2]: 10.21 Day.Hours; Time to Positivity (Day.Hours) Experiment 2 [3]: 8.12 Day.Hours
